Experimental data published in patent US7998937B2, “Flavonoid compound having an antiviral activity” (Korea Research Institute of Bioscience and Biotechnology, priority 2005, dated 2011).
≈ marks a conversion by molar mass, not a printed value. Read-outs that look alike come from different tables or passages of the source.

Legend:
[1] = system: rhinovirus (strain: rhinovirus 2); test: Inhibitory activity against rhinovirus in HeLa cells (SRB); assay type: cell-based; conditions: for inhibition at 10 µg/mL: Enterovirus, HeLa, 48 h, read-out: Inhibitory activity (%) (Mean ± S.D.)
Protocol: In order to evaluate the inhibitory activity of quercetin-7-rhamnoside against rhino virus, the following in vitro test was performed using HeLa, one of human cervical cancer cell lines, cells. Inhibitory activity of quercetin-7-rhamnoside against viral proliferation was measured by the method proposed by Kwon Dur-Han, et al. (Korean Patent Publication No. 2004-101863). […] HeLa cells were cultured on a 96-well microplate until the bottom of each well was completely covered with cells. Remaining culture medium was removed and each well was washed twice with a phosphate buffer. A rhino virus solution adjusted to a concentration of TCID 50 was added to each well. […] After 48 hours, the HeLa cells were observed under a microscope. After adding 100 μL of 70% acetone, each well was kept at −20° C. for 1 hour. After drying in a desiccator, 100 μL of 0.4% (w/v) SRB (sulforhodamine B) solution dissolved in 1% (v/v) acetic acid was added. After 30 minutes of staining, the SRB solution not bound to the cells was washed off with 1% (v/v) acetic acid for 4 times. After drying, 100 μL of 10 mM Tris solution (pH 10.5) was added to each well to dissolve the stained substance at the bottom of the well. Light absorbance was measured at 562 nm to evaluate the antiviral activity. As control group, viability of cells treated with DMSO only was compared with those treated with both DMSO and virus. Each test was repeated for 3 times.

[2] = system: porcine epidemic diarrhea virus (PEDV); test: Antiviral activity against PEDV in Vero cells (SRB staining); conditions: for Inhibitory activity (TI = CC50/IC50) / IC50 (concentration required for 50% inhibition of viruses): PEDV in Vero cells, 48 hours; for Inhibitory activity (TI = CC50/IC50): 0.1-100 μg/mL; for IC50 (concentration required for 50% inhibition of viruses): maximum dosage 100 μg/mL; for IC50: Porcine epidemic diarrhea virus, Vero, 48 h, read-out: IC50 (concentration required for 50% inhibition of viruses)
[3] = system: rotavirus (strain: OSU); test: Inhibitory activity against rotavirus in MA104 cells (SRB); assay type: cell-based; conditions: read-out: Inhibitory activity (%) (Mean ± S.D.)
Protocol: In order to evaluate the inhibitory activity of quercetin-7-rhamnoside against rota virus, the following in vitro test was performed using MA014 cells derived from […] kidney. Inhibitory activity of quercetin-7-rhamnoside against viral proliferation was measured by the method proposed by Kwon Dur-Han, et al. (Korean Patent Publication No. 2004-101863). Inhibitory activity against rotavirus (strain: OSU) was measured. MA104 cells were cultured on a 96-well microplate until the bottom of each well was completely covered with cells. Remaining culture medium was removed and each well was washed twice with a phosphate buffer. A rota virus solution adjusted to a concentration of TCID 50 was added to each well. […] After 48 hours, the MA104 cells were observed under a microscope. After adding 100 μL of 70% acetone, each well was kept at −20° C. for 1 hour. After drying in a desiccator, 100 μL of 0.4% (w/v) SRB (sulforhodamine B) solution dissolved in 1% (v/v) acetic acid was added. After 30 minutes of staining, the SRB solution not bound to the cells was washed off with 1% (v/v) acetic acid for 4 times. After drying, 100 μL of 10 mM Tris solution (pH 10.5) was added to each well to dissolve the stained substance at the bottom of the well. Light absorbance was measured at 562 nm to evaluate the antiviral activity. As control group, viability of cells treated with DMSO only was compared with those treated with both DMSO and virus. Each test was repeated for 2 times.

[4] = system: influenza type A (H1N1/WS/33) virus; test: Antiviral activity against influenza type A virus in MDCK cells (SRB); assay type: cell-based, influenza virus type A (H1N1; WS/33 strain); conditions: Influenza A virus; 10 μg/mL, influenza A H1N1/WS/33 in MDCK cells, 48 hours, repeated 3 times; read-out: Inhibitory activity (%) (Mean ± S.D.)
Protocol: In order to evaluate the inhibitory activity of quercetin-7-rhamnoside against influenza virus, the following in vitro test was performed using MDCK cells derived from dog kidney.
Inhibitory activity of quercetin-7-rhamnoside against viral proliferation was measured by the method proposed by Kwon Dur-Han, et al. (Korean Patent Application No. 2004-101863). Inhibitory activity against influenza virus type A (H1N1; WS/33 strain) was measured. MDCK cells were cultured on a 96-well microplate until the bottom of each well was completely covered with cells. Remaining culture medium was completely removed and each well was washed twice with a phosphate buffer. Each of quercetin-7-rhamnoside; conventional antiviral agents purchased from Sigma-ribavirin and amantadine; oseltamivir (trade name: Tamiflu) purchased from Roche; and zanamivir (trade name: Relenza) purchased from Glaxo Wellcome; dissolved in dimethyl sulfoxide was added to each well to a final concentration of 10 μg/mL. […] After adding 100 μL of 70% acetone, each well was kept at −20° C. for 1 hour. After drying in a desiccator, 100 μL of 0.4% (w/v) SRB (sulforhodamine B) solution dissolved in 1% (v/v) acetic acid was added. After 30 minutes' staining, the SRB staining solution not bound to the cells was washed off with 1% (v/v) acetic acid for 4 times. After drying, 100 μL of 10 mM Tris solution (pH 10.5) was added to each well to dissolve the stained substance at the bottom of the well. Light absorbance was measured at 562 nm to evaluate the antiviral activity. As control group, viability of cells treated with DMSO only was compared with those treated with both DMSO and virus. Each test was repeated 3 times.

[5] = system: influenza type B (B/Lee/40) virus; test: Inhibitory activity against influenza type B virus in MDCK cells (SRB); assay type: cell-based; conditions: Influenza B virus, read-out: Inhibitory activity (%) (Mean ± S.D.)
[6] = system: porcine transmissible gastroenteritis virus (TGEV); test: Anti-coronavirus inhibitory activity against TGEV in ST cells; assay type: cell-based; conditions: for inhibitory activity against TGEV (in words): 0.1-100 μg/mL, 48 hours
Protocol: (§1) Antiviral activity of quercetin-7-rhamnoside against porcine transmissible gastroenteritis virus (TGEV) and porcine respiratory coronavirus (PRCV), another kind of coronaviruses, was evaluated. ST cells were cultured on a 96-well microplate until the bottom of each well was completely covered with cells. Remaining culture medium was completely removed and each well was washed twice with a phosphate buffer. TGEV or PRCV solution adjusted to a concentration of TCID50 was added to each well. Each of quercetin-7-rhamnoside, conventional antiviral agents purchased from Sigma-ribavirin, lamivudine, azidovudine, acycloguanine and glycyrrhizhin-dissolved in dimethyl sulfoxide was added to each well to a final concentration of 0.1-100 μg/mL. […] Similarly to the aforesaid evaluation of antiviral inhibitory activity against PEDV, c ells treated with DMSO only and those treated with both DMSO and TGEV or both DMSO and PRCV were used as control groups.

[7] = system: porcine respiratory coronavirus (PRCV); test: Anti-coronavirus inhibitory activity against PRCV in ST cells; assay type: cell-based; conditions: for inhibitory activity against PRCV (in words): 0.1-100 μg/mL, 48 hours
Protocol: as §1

[8] = in vitro; conditions: African green monkey
[9] = in vitro; conditions: pig
[10] = 10 μg/mL, rhinovirus 2 in HeLa cells, 48 hours, repeated 3 times
[11] = 10 μg/mL, rotavirus OSU in MA104 cells, 48 hours, repeated 2 times
[12] = 10 μg/mL, influenza B/Lee/40 in MDCK cells, 48 hours, repeated 3 times
[13] = Alphacoronavirus 1, 48 hours, read-out: IC50

With catechin the “Inhibitory activity (%) (Mean ± S.D.)” value [1, 10] was 11.21%, the “Inhibitory activity (TI = CC50/IC50)” value [2] was over 9.0 and the “Inhibitory activity (TI = CC50/IC50)” value ([2]; listed as catechin) was 9.0. For the same compound, the “IC50 (concentration required for 50% inhibition of viruses)” value [2] was 11.1 µg/mL.
For `CC(=O)N[C@H]1[C@H]([C@H](O)[C@H](O)CO)OC(C(=O)O)=C[C@@H]1N=C(N)N` [Relenza, zanamivir], the inhibition at 10 µg/mL [3, 11] was 0.5%, the inhibition at 10 µg/mL [4] was 52.7% and the “IC50 (concentration required for 50% inhibition of viruses)” value [2] was “IC50 not attained even at the maximum dosage”. The inhibition at 10 µg/mL [5, 12] was 3.4%.
With `Nc1nc2c(ncn2COCCO)c(=O)[nH]1` [Acycloguanine, acycloguanine] the inhibition at 10 µg/mL [3, 11] was 0.78%, the “inhibitory activity against TGEV (in words)” value [6] was “no inhibitory activity” and the “IC50 (concentration required for 50% inhibition of viruses)” value [2] was “IC50 not attained even at the maximum dosage”. For the same compound, the IC50 [2] was over 100 µg/mL and the “inhibitory activity against PRCV (in words)” value [7] was “no inhibitory activity”.
In the case of `Nc1ccn([C@@H]2CS[C@H](CO)O2)c(=O)n1` [Lamivudine, lamivudine], the inhibition at 10 µg/mL [3, 11] is reported as 0.02%, the “inhibitory activity against TGEV (in words)” value [6] is reported as “no inhibitory activity” and the IC50 [2] is reported as over 100 µg/mL. For the same compound, the “inhibitory activity against PRCV (in words)” value [7] was “no inhibitory activity”.
In the case of `CC1(C)[C@@H](O[C@H]2O[C@H](C(=O)O)[C@@H](O)[C@H](O)[C@H]2O[C@@H]2O[C@H](C(=O)O)[C@@H](O)[C@H](O)[C@H]2O)CC[C@]2(C)[C@H]3C(=O)C=C4[C@@H]5C[C@@](C)(C(=O)O)CC[C@]5(C)CC[C@@]4(C)[C@]3(C)CC[C@@H]12` [Glycyrrhizin, glycyrrhizin], the inhibition at 10 µg/mL ([3]; Rotavirus, MA104, 48 h) is reported as 0.49%, the “inhibitory activity against TGEV (in words)” value [6] is reported as “no inhibitory activity” and the “inhibitory activity against PRCV (in words)” value [7] is reported as “no inhibitory activity”.
`C[C@@H]1O[C@@H](Oc2c(-c3ccc(O)c(O)c3)oc3cc(O)cc(O)c3c2=O)[C@H](O)[C@H](O)[C@H]1O` [Quercitrin, quercitrin] gave an inhibition at 10 µg/mL [1] of 13.4% and an IC50 [2] of over 100 µg/mL.
In the case of `COc1ccc([C@@H]2CC(=O)c3c(O)cc(O[C@@H]4O[C@H](CO[C@@H]5O[C@@H](C)[C@H](O)[C@@H](O)[C@H]5O)[C@@H](O)[C@H](O)[C@H]4O)cc3O2)cc1O` [Hesperidin, hesperidin], the “Inhibitory activity (%) (Mean ± S.D.)” value [1, 10] is reported as 3.12% and the “IC50 (concentration required for 50% inhibition of viruses)” value [2] is reported as “IC50 not attained even at the maximum dosage”.
`O=c1c(O)c(-c2ccc(O)c(O)c2)oc2cc(O)cc(O)c12` [Quercetin, quercetin] showed an inhibition at 10 µg/mL [1, 10] of 9.87%, a CC50 at 48 h [8] of 365 µg/mL (≈ 1210 µM) and an IC50 [2] of 10.7 µg/mL (≈ 35.4 µM).
With `CCOC(=O)C1=C[C@@H](OC(CC)CC)[C@H](NC(C)=O)[C@@H](N)C1` [Tamiflu, oseltamivir] the inhibition at 10 µg/mL [4] was -9.78%, the “IC50 (concentration required for 50% inhibition of viruses)” value [2] was “IC50 not attained even at the maximum dosage” and the inhibition at 10 µg/mL ([5]; MDCK, 48 h) was -1.43%.
For `NC(=O)c1ncn([C@@H]2O[C@H](CO)[C@@H](O)[C@H]2O)n1` [Ribavirin, ribavirin], the “Inhibitory activity (%) (Mean ± S.D.)” value [1, 10] was 42.32 ± 4.38%, the inhibition at 10 µg/mL [1, 10] was 42.3% and the inhibition at 10 µg/mL [3, 11] was 82.3%. For the same compound, the CC50 at 48 h [9] was over 100 µg/mL, the IC50 [6, 13] was 55.1 µg/mL (≈ 226 µM) and the CC50 at 48 h [8] was over 100 µg/mL. It also gave an inhibition at 10 µg/mL [4] of 74.2%, an IC50 [2] of 4.1 µg/mL (≈ 16.8 µM) and an IC50 [7, 13] of 61.6 µg/mL (≈ 252 µM). The inhibition at 10 µg/mL [5, 12] was 95.8%.
With `O=c1c(-c2ccc(O)cc2)coc2cc(O[C@@H]3O[C@H](CO)[C@@H](O)[C@H](O)[C@H]3O)cc(O)c12` [Genistin, genistin] the inhibition at 10 µg/mL [1, 10] was 13%, the “IC50 (concentration required for 50% inhibition of viruses)” value [2] was “IC50 not attained even at the maximum dosage” and the IC50 [2] was over 100 µg/mL.
Compound `NC12CC3CC(CC(C3)C1)C2` [Amantadine, amantadine] has an inhibition at 10 µg/mL [4] of 14.6% and an inhibition at 10 µg/mL ([5]; MDCK, 48 h) of -1.85%.
In the case of `O=c1cc(-c2ccc(O)c(O)c2)oc2cc(O)cc(O)c12` [Luteolin, luteolin], the inhibition at 10 µg/mL [1, 10] is reported as 21.8% and the IC50 [2] is reported as 0.21 µg/mL (≈ 0.734 µM).
With `C[C@@H]1O[C@@H](OC[C@H]2O[C@@H](Oc3c(-c4ccc(O)c(O)c4)oc4cc(O)cc(O)c4c3=O)[C@H](O)[C@@H](O)[C@@H]2O)[C@H](O)[C@H](O)[C@H]1O` [Rutin, rutin] the inhibition at 10 µg/mL [1, 10] was 25.7% and the IC50 [2] was over 100 µg/mL.
With `O=c1cc(-c2ccc(O)cc2)oc2cc(O)cc(O)c12` [Apigenin, apigenin] the inhibition at 10 µg/mL [1, 10] was 9.24%, the CC50 at 48 h [8] was 50 µg/mL (≈ 185 µM) and the IC50 [2] was 0.1 µg/mL (≈ 0.37 µM).
